Source: ChEMBL document CHEMBL1153039, “Allosteric modulators of the adenosine A1 receptor: synthesis and pharmacological evaluation of 4-substituted 2-amino-3-benzoylthiophenes” (J Med Chem, 2009)
Blank lines part the entries; values can stand above or below the molecule they belong to. Activity calls are given as the source filed them. The rule behind the calls is not given here.

Columns and labels:
[1] = target: T1, Adenosine receptor A1 (Homo sapiens) (UniProt P30542); experiment: Allosteric modulation of human adenosine A1 receptor transfected in CHO FlpIn cells assessed as orthosteric agonist R-PIA-mediated ERK1/2 phosphorylation at 10 uM pretreated 30 mins before R-PIA challenge measured after 1.5 hrs by fluorescence assay; assay type: functional, cell-based
T1 sequence (whole entry): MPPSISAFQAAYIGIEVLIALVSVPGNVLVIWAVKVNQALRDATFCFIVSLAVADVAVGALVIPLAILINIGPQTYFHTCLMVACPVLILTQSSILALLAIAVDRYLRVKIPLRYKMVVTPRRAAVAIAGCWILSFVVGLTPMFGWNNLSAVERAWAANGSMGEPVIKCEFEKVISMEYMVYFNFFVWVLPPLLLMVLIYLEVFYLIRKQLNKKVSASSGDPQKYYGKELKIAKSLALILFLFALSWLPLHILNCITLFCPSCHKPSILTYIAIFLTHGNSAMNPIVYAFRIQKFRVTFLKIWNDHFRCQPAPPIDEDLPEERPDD

[2] = target: T1, Adenosine receptor A1 (Homo sapiens); experiment: Allosteric modulation of human adenosine A1 receptor transfected in CHO FlpIn cells assessed as orthosteric agonist R-PIA-mediated ERK1/2 phosphorylation at 3 uM pretreated 30 mins before R-PIA challenge measured after 1.5 hrs by fluorescence assay; assay type: functional, cell-based
[3] = target: T1, Adenosine receptor A1 (Homo sapiens); experiment: Binding affinity to allosteric site of unoccupied human adenosine A1 receptor transfected in CHO FlpIn cells as potentiation of orthosteric agonist R-PIA-mediated [35S]GTPgammaS binding after 60 mins by liquid scintillation counting; assay type: functional, cell-based
[4] = target: T1, Adenosine receptor A1 (Homo sapiens); experiment: Binding affinity to allosteric site of unoccupied human adenosine A1 receptor transfected in CHO FlpIn cells assessed as potentiation of orthosteric agonist R-PIA-mediated ERK1/2 phosphorylation pretreated 30 mins before R-PIA challenge measured after 1.5 hrs by fluorescence assay; assay type: cell-based
[5] = target: T1, Adenosine receptor A1 (Homo sapiens); experiment: Allosteric modulation of human adenosine A1 receptor transfected in CHO FlpIn cells assessed as orthosteric agonist R-PIA-mediated ERK1/2 phosphorylation at 0.1 to 3 uM pretreated 30 mins before R-PIA challenge measured after 1.5 hrs by fluorescence assay; assay type: functional, cell-based
[6] = target: T1, Adenosine receptor A1 (Homo sapiens); experiment: […] at human adenosine A1 receptor transfected in CHO FlpIn cells assessed as potentiation of orthosteric agonist R-PIA-mediated [35S]GTPgammaS binding at 0.1 to 3 uM after 60 mins by liquid scintillation counting; assay type: functional, cell-based

Activity [1]: 73% | Activity [2]: 55%
SMILES: Nc1scc(-c2ccc3ccccc3c2)c1C(=O)c1ccccc1

Activity [1]: 48% | Activity [2]: 49%
SMILES: Nc1scc(-c2ccccc2)c1C(=O)c1ccccc1

Activity [1]: 87% | Activity [2]: 70%
SMILES: Nc1scc(-c2ccccc2F)c1C(=O)c1ccc(Cl)cc1

Activity [1]: 76% | Activity [2]: 67%
SMILES: Nc1scc(-c2cccc(Br)c2)c1C(=O)c1ccccc1

Activity [1]: 93% | Activity [2]: 83% | pKb [3]: 5.82 | pKb [4]: 5.22 | Activity [5]: Active | Activity [6]: Active
SMILES: Nc1scc(-c2cc(C(F)(F)F)cc(C(F)(F)F)c2)c1C(=O)c1ccccc1

Activity [1]: 52% | Activity [2]: 51%
SMILES: Nc1scc(-c2cccc(F)c2)c1C(=O)c1ccccc1

Activity [1]: 90% | Activity [2]: 76%
SMILES: Nc1scc(-c2cccc(F)c2)c1C(=O)c1ccc(Cl)cc1

Activity [1]: 49% | Activity [2]: 46%
SMILES: Nc1scc(-c2ccc(Br)cc2)c1C(=O)c1ccccc1

Activity [1]: 52% | Activity [2]: 52%
SMILES: COc1ccc(-c2csc(N)c2C(=O)c2ccccc2)cc1

Activity [1]: 61% | Activity [2]: 54%
SMILES: Nc1scc(-c2ccc(I)cc2)c1C(=O)c1ccc(Cl)cc1

Activity [1]: 64% | Activity [2]: 51%
SMILES: Nc1scc(-c2ccccc2)c1C(=O)c1ccc(Cl)cc1

Activity [1]: 68% | Activity [2]: 55%
SMILES: Nc1scc(-c2ccccc2F)c1C(=O)c1ccccc1

Activity [1]: 74% | Activity [2]: 69%
SMILES: Nc1scc(-c2cc(C(F)(F)F)cc(C(F)(F)F)c2)c1C(=O)c1ccc(Cl)cc1

Activity [1]: 59% | Activity [2]: 83% | pKb [3]: 5.96 | pKb [4]: 6.37 | Activity [5]: Active | Activity [6]: Active
SMILES: Nc1scc(-c2cccc(C(F)(F)F)c2)c1C(=O)c1ccccc1

Activity [1]: 34% | Activity [2]: 41%
SMILES: COc1cccc(-c2csc(N)c2C(=O)c2ccccc2)c1

The remaining lines, values behind:

SMILES: Nc1scc(-c2ccc(F)cc2)c1C(=O)c1ccccc1
Activity [1]: 60% | Activity [2]: 51%

SMILES: Nc1scc(-c2ccc(Br)cc2)c1C(=O)c1ccc(Cl)cc1
Activity [1]: 46% | Activity [2]: 45%

SMILES: Nc1scc(-c2ccc(F)cc2)c1C(=O)c1ccc(Cl)cc1
Activity [1]: 61% | Activity [2]: 62%

SMILES: Nc1scc(-c2cccc([N+](=O)[O-])c2)c1C(=O)c1ccccc1
Activity [1]: 50% | Activity [2]: 47%

SMILES: COc1ccc(-c2csc(N)c2C(=O)c2ccc(Cl)cc2)cc1
Activity [1]: 55% | Activity [2]: 51%

SMILES: Nc1scc(-c2cccc(Cl)c2)c1C(=O)c1ccc(Cl)cc1
Activity [1]: 75% | Activity [2]: 58%

SMILES: Nc1scc(-c2ccc(Cl)cc2)c1C(=O)c1ccccc1
Activity [1]: 51% | Activity [2]: 46%

SMILES: Nc1scc(-c2cccc(Br)c2)c1C(=O)c1ccc(Cl)cc1
Activity [1]: 69% | Activity [2]: 62%

SMILES: COc1cccc(-c2csc(N)c2C(=O)c2ccc(Cl)cc2)c1
Activity [1]: 60% | Activity [2]: 58%

SMILES: Nc1scc(-c2ccc(I)cc2)c1C(=O)c1ccccc1
Activity [1]: 50% | Activity [2]: 51%

SMILES: Nc1scc(-c2cccc([N+](=O)[O-])c2)c1C(=O)c1ccc(Cl)cc1
Activity [1]: 42% | Activity [2]: 53%

SMILES: Nc1scc(-c2ccc([N+](=O)[O-])cc2)c1C(=O)c1ccccc1
Activity [1]: 47% | Activity [2]: 50%

SMILES: Nc1scc(-c2ccc([N+](=O)[O-])cc2)c1C(=O)c1ccc(Cl)cc1
Activity [1]: 52% | Activity [2]: 47%

SMILES: Nc1scc(-c2cccc(C(F)(F)F)c2)c1C(=O)c1ccc(Cl)cc1
Activity [1]: 73% | Activity [2]: 64%

SMILES: Nc1scc(-c2ccc(Cl)cc2)c1C(=O)c1ccc(Cl)cc1
Activity [1]: 50% | Activity [2]: 50%

SMILES: Nc1scc(-c2ccc3ccccc3c2)c1C(=O)c1ccc(Cl)cc1
Activity [1]: 67% | Activity [2]: 54%

SMILES: Nc1scc(-c2cccc(Cl)c2)c1C(=O)c1ccccc1
Activity [1]: 52% | Activity [2]: 45%
